Consider 16 molecules from US20250163038A1, “CBL-B MODULATORS AND USES THEREOF” (Nimbus Clio, Inc., priority 2021, published 2025).

Test [1] has as its target Recombinant human Cbl-b (aa 36-427) (Homo sapiens, UniProt Q13191). Nature of the test: Cbl-b Biochemical Assay (TR-FRET). Background: In TR-FRET formats the signal depends on donor and acceptor labels being close together.
Test [2] concerns Jurkat (clone E6-1) cells with NFAT luciferase reporter. Nature of the test: Jurkat reporter assay (NFAT Luciferase). The format is cell-based. The note with it: Homo sapiens; Jurkat NFAT luciferase reporter cells, anti-CD3 stimulation, 6 hr; read-out: Jurkat NFAT EC50. (In a reporter assay the amount or activity of a reporter protein is the signal.)
For test [3], the target named is T1, Recombinant human c-Cbl (aa 47-435) (Homo sapiens, UniProt P22681).
T1 sequence (P22681 47-435): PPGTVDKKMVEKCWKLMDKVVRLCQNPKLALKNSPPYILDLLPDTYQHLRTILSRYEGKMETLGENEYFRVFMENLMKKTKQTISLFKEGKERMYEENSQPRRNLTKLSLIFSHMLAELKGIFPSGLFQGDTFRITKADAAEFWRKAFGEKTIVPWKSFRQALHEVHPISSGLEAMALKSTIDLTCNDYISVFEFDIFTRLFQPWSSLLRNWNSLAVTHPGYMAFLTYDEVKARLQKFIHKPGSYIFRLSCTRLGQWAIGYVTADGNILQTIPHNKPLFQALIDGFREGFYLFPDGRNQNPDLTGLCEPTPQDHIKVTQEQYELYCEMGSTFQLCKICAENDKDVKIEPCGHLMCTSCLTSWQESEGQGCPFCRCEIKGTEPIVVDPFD
As to the kind of experiment: c-Cbl Biochemical Assay (TR-FRET).

The mark [4] stands for this setting: hc-Cbl Biochemical Assay (TR-FRET), read-out: TR-FRET hcCbl IC50.

Read-outs that look alike come from different tables or passages of the source.

A word on the IC50: it is the concentration that gives 50% inhibition. One may read the EC50 as the concentration that produces a half-maximal response.

Sequence of Recombinant human Cbl-b (aa 36-427) (Q13191 36-427): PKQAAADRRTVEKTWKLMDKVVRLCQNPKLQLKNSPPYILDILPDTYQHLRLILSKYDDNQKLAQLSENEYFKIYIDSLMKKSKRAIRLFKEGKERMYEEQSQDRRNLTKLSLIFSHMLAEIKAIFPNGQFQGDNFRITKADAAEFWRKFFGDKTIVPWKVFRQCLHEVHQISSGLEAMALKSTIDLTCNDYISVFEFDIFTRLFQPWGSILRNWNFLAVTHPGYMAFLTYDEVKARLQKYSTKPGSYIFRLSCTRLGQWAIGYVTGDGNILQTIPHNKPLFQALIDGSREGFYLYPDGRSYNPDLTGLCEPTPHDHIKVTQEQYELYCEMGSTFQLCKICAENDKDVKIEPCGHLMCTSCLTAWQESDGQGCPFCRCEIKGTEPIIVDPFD

Regarding `Cn1cnnc1-c1cc(Cl)ccc1-c1cccc(-c2nc3cc(CN[C@@H]4CCC[C@@H]4O)cc(C(F)(F)F)c3o2)c1` [ADI-3, (1S,2R)-2-[({2-[4′-Chloro-2′-(4-methyl-1,2,4-triazol-3-yl)-[1,1′-biphenyl]-3-yl]-7-(trifluoromethyl)-1,3-benzoxazol-5-yl}methyl)amino]cyclopentan-1-ol], the concentration for half-maximal inhibition (IC50) in test [1] (read-out: TR-FRET hCbl-b IC50) and in test [3] (setting [4]) was less than 200 nM each time. In test [2], the EC50 is less than 200 nM.
As to `Cn1cnnc1-c1cc(F)ccc1-c1cccc(-c2nc3cc(CNCC4(O)CC(F)(F)C4)cc(C(F)(F)F)c3[nH]2)c1` [CK-2, 3,3-Difluoro-1-((((2-(4′-fluoro-2′-(4-methyl-4H-1,2,4-triazol-3-yl)-[1,1′-biphenyl]-3-yl)-7-(trifluoromethyl)-1H-benzo[d]imidazol-5-yl)methyl)amino)methyl)cyclobutan-1-ol], the half-maximal inhibitory concentration (IC50) in test [1] (read-out: TR-FRET hCbl-b IC50) and in test [3] (setting [4]) was less than 200 nM in each case. For the same molecule, the EC50 in test [2] is less than 200 nM.
With `Cn1cnnc1-c1cc(F)ccc1-c1cccc(-c2nc3cc(CNCC(C)(C)O)cc(C(F)(F)F)c3o2)c1` [AE-2, 1-(((2-(4′-Fluoro-2′-(4-methyl-4H-1,2,4-triazol-3-yl)-[1,1′-biphenyl]-3-yl)-7-(trifluoromethyl)benzo[d]oxazol-5-yl)methyl)amino)-2-methylpropan-2-ol], the IC50 in test [1] (read-out: TR-FRET hCbl-b IC50) is less than 200 nM; in test [3] (setting [4]), 1000 to 10000 nM. Further, the EC50 in test [2] fell in the range of 200 to 1000 nM.
As to `Cn1cnnc1-c1cc(F)ccc1-c1cccc(-c2nc3cc(CNCC4(O)CCC4)cc(F)c3o2)c1` [IZ-1, 1-((((7-Fluoro-2-(4′-fluoro-2′-(4-methyl-4H-1,2,4-triazol-3-yl)-[1,1′-biphenyl]-3-yl)benzo[d]oxazol-5-yl)methyl)amino)methyl)cyclobutan-1-ol], the IC50 in test [1] (read-out: TR-FRET hCbl-b IC50) and in test [3] (setting [4]) was less than 200 nM throughout. Moreover, the EC50 in test [2] was less than 200 nM.
`Cn1cnnc1-c1cc(F)ccc1-c1cc(-c2nc3cc(CN[C@@H]4CCC[C@@H]4O)ccc3[nH]2)nc(C2CC2)c1` [AEF-2, (1S,2R)-2-(((2-(6-Cyclopropyl-4-(4-fluoro-2-(4-methyl-4H-1,2,4-triazol-3-yl)phenyl)pyridin-2-yl)-1H-benzo[d]imidazol-5-yl)methyl)amino)cyclopentan-1-ol]: the IC50 in test [1] (read-out: TR-FRET hCbl-b IC50) and in test [3] (setting [4]) was less than 200 nM throughout. For the same molecule, the EC50 in test [2] is 200 to 1000 nM.
Consider `C[C@H]1CCCN(Cc2cc(C(F)(F)F)c3[nH]c(-c4cc(-c5ccc(F)cc5-c5nncn5C)cc(C5CC5)n4)nc3c2)C1` [AAZ-10, (S)-2-(6-Cyclopropyl-4-(4-fluoro-2-(4-methyl-4H-1,2,4-triazol-3-yl)phenyl)pyridin-2-yl)-5-((3-methylpiperidin-1-yl)methyl)-7-(trifluoromethyl)-1H-benzo[d]imidazole], for which the IC50 was less than 200 nM in test [1] (read-out: TR-FRET hCbl-b IC50) and 1000 to 10000 nM in test [3] (setting [4]). Also, in test [2], the EC50 lay within 200 to 1000 nM.
As for `COC(=O)c1ccc2oc(-c3cc(-c4ccc(F)cc4-c4nncn4C)cc(C4CC4)n3)nc2c1` [ADP-1, Methyl 2-{6-cyclopropyl-4-[4-fluoro-2-(4-methyl-1,2,4-triazol-3-yl)phenyl]pyridin-2-yl}-1,3-benzoxazole-5-carboxylate], the IC50 in test [1] (read-out: TR-FRET hCbl-b IC50) and in test [3] (setting [4]) was 10000 to 50000 nM each time. In addition, in test [2], the EC50 lay in the range of 10000 to 50000 nM.
`Cn1cnnc1-c1cc(C#N)ccc1-c1cc(-c2nc3cc(CO)cc(F)c3o2)nc(C2CC2)c1` [AHD-1, 4-{2-cyclopropyl-6-[7-fluoro-5-(hydroxymethyl)-1,3-benzoxazol-2-yl]pyridin-4-yl}-3-(4-methyl-1,2,4-triazol-3-yl) benzonitrile]: the IC50 in test [1] (read-out: TR-FRET hCbl-b IC50) was 200 to 1000 nM; in test [3] (setting [4]), 1000 to 10000 nM. The EC50 in test [2] lay in the range of 1000 to 10000 nM.
Consider `Cn1cnnc1-c1cc(F)ccc1-c1ccnc(-c2nc3cc(CN[C@@H]4CCC[C@@H]4O)cc(C(F)(F)F)c3o2)c1` [AEG-8, (1S,2R)-2-{[(2-{4-[4-Fluoro-2-(4-methyl-1,2,4-triazol-3-yl)phenyl]pyridin-2-yl}-7-(trifluoromethyl)-1,3-benzoxazol-5-yl)methyl]amino}cyclopentan-1-ol], for which the IC50 in test [1] (read-out: TR-FRET hCbl-b IC50) and in test [3] (setting [4]) was less than 200 nM throughout. For the same molecule, the EC50 in test [2] is less than 200 nM.
For `Cn1cnnc1-c1cc(F)ccc1-c1cccc(-c2nc3cc(CNCC4(O)CCC4)cc(C(F)(F)F)c3[nH]2)c1` [BP-1, 1-((((2-(4′-Fluoro-2′-(4-methyl-4H-1,2,4-triazol-3-yl)-[1,1′-biphenyl]-3-yl)-7-(trifluoromethyl)-1H-benzo[d]imidazol-5-yl)methyl)amino)methyl)cyclobutan-1-ol], the IC50 in test [1] (read-out: TR-FRET hCbl-b IC50) is less than 200 nM; in test [3] (setting [4]), 1000 to 10000 nM. The EC50 in test [2] lay in the range of 200 to 1000 nM.
`Cn1cnnc1-c1cc(F)ccc1-c1cccc(-c2nc3cc(C(=O)NO)cc(C(F)(F)F)c3o2)c1` [DI-1, 2-(4′-Fluoro-2′-(4-methyl-4H-1,2,4-triazol-3-yl)-[1,1′-biphenyl]-3-yl)-N-hydroxy-7-(trifluoromethyl)benzo[d]oxazole-5-carboxamide]: the IC50 in test [1] (read-out: TR-FRET hCbl-b IC50) is less than 200 nM; in test [3] (setting [4]), 1000 to 10000 nM. In addition, in test [2], the EC50 was 10000 to 50000 nM.
In the case of `Cn1cnnc1-c1cc(F)ccc1-c1cc(-c2nc3cc(CN[C@@H]4CCC[C@@H]4O)cc(F)c3o2)nc(C2CC2)c1` [AFB-2, (1S,2R)-2-{[(2-{6-Cyclopropyl-4-[4-fluoro-2-(4-methyl-1,2,4-triazol-3-yl)phenyl]pyridin-2-yl}-7-fluoro-1,3-benzoxazol-5-yl)methyl]amino}cyclopentan-1-ol], the IC50 in test [1] and in test [3] was less than 200 nM throughout. For the same molecule, in test [2], the EC50 is less than 200 nM.
Turning to `CC[C@H](O)CNCc1cc(C(F)(F)F)c2oc(-c3cccc(-c4ccc(F)cc4-c4nncn4C)c3)nc2c1` [DG-2, (S)-1-(((2-(4′-Fluoro-2′-(4-methyl-4H-1,2,4-triazol-3-yl)-[1,1′-biphenyl]-3-yl)-7-(trifluoromethyl)benzo[d]oxazol-5-yl)methyl)amino)butan-2-ol], the IC50 in test [1] (read-out: TR-FRET hCbl-b IC50) and in test [3] (setting [4]) was less than 200 nM in each case. Besides, in test [2], the EC50 is less than 200 nM.
On to `Cc1cc(CN[C@@H]2CCC[C@@H]2O)c(F)c2nc(-c3cccc(-c4ccc(F)cc4-c4nncn4C)c3)oc12` [IQ-8, (1S,2R)-2-(((4-Fluoro-2-(4′-fluoro-2′-(4-methyl-4H-1,2,4-triazol-3-yl)-[1,1′-biphenyl]-3-yl)-7-methylbenzo[d]oxazol-5-yl)methyl)amino)cyclopentan-1-ol], for which the IC50 in test [1] (read-out: TR-FRET hCbl-b IC50) and in test [3] (setting [4]) was less than 200 nM each time. The EC50 in test [2] is less than 200 nM.
For the molecule `Cn1cnnc1-c1cc(F)ccc1-c1cccc(-c2nc3cc(CNC4CCCC4)cc(C(F)(F)F)c3o2)c1` [DS-2, N-((2-(4′-Fluoro-2′-(4-methyl-4H-1,2,4-triazol-3-yl)-[1,1′-biphenyl]-3-yl)-7-(trifluoromethyl)benzo[d]oxazol-5-yl)methyl)cyclopentanamine], the half-maximal inhibitory concentration (IC50) in test [1] (read-out: TR-FRET hCbl-b IC50) and in test [3] (setting [4]) was less than 200 nM in each case. Besides, the EC50 in test [2] is less than 200 nM.
Take `CC(C)CCNCc1cc(C(F)(F)F)c2oc(-c3cccc(-c4ccc(F)cc4-c4nncn4C)c3)nc2c1` [FO-2, N-((2-(4′-Fluoro-2′-(4-methyl-4H-1,2,4-triazol-3-yl)-[1,1′-biphenyl]-3-yl)-7-(trifluoromethyl)benzo[d]oxazol-5-yl)methyl)-3-methylbutan-1-amine]: the IC50 in test [1] (read-out: TR-FRET hCbl-b IC50) and in test [3] (setting [4]) was less than 200 nM throughout. Besides, the EC50 in test [2] was less than 200 nM.
